Each structure is given as a SMILES string.

Series [1] is described as follows: Cytotoxicity against human LOXIMVI cells assessed as cell growth at 10^-7 M after 48 hrs by SRB assay. The conditions noted are these: LOX IMVI, read-out: Activity. Format: functional.
In a further series the test system is Malme-3M. As to the kind of experiment: Cytotoxicity against human MALME-3M cells assessed as cell growth at 10^-7 M after 48 hrs by SRB assay. Format: functional. Conditions: read-out: Activity. A general note: Sulforhodamine B stains cellular protein and so reports cell mass.
A further series relates to SK-MEL-5. As to the kind of experiment: Cytotoxicity against human SK-MEL-5 cells assessed as cell growth at 10^-7 M after 48 hrs by SRB assay. Format: functional. The conditions noted are these: SK-MEL-5, 48 h, read-out: Activity.
A short description of series [2]: Cytotoxicity against human UO31 cells assessed as cell growth at 10^-7 M after 48 hrs by SRB assay. Format: functional. Conditions: UO-31, 48 h, read-out: Activity.
Another series has as its system MDA-MB-231. Briefly: Cytotoxicity against human MDA-MB-231 cells assessed as cell growth at 10^-7 M after 48 hrs by SRB assay. Conditions: MDA-MB-231, 48 h, read-out: Activity. Format: functional.
Series [3] in a line: Cytotoxicity against human RPMI8226 cells assessed as cell growth at 10^-6 M after 48 hrs by SRB assay. Format: functional. Conditions: RPMI-8226, 48 h, read-out: Activity.
Series [4] in a line: Cytotoxicity against human SF295 cells assessed as cell growth at 10^-6 M after 48 hrs by SRB assay. Format: functional. The conditions noted are these: SF-295, 48 h, read-out: Activity.
Series [5] in a line: Cytotoxicity against human OVCAR5 cells assessed as cell growth at 10^-6 M after 48 hrs by SRB assay. The conditions noted are these: OVCAR-5, 48 h, read-out: Activity. Format: functional.
Series [6] in a line: Cytotoxicity against human MOLT4 cells assessed as cell growth at 10^-5 M after 48 hrs by SRB assay. The conditions noted are these: MOLT-4, 48 h, read-out: Activity. Format: functional.
The subject of series [7] is NCI-H322M. As to the kind of experiment: Cytotoxicity against human NCI-H322M cells assessed as cell growth at 10^-5 M after 48 hrs by SRB assay. Format: functional. Conditions: read-out: Activity.
Series [8] is described as follows: Cytotoxicity against human SNB19 cells assessed as cell growth at 10^-5 M after 48 hrs by SRB assay. Format: functional. Conditions: SNB-19, 48 h, read-out: Activity.
A further series has as its system M14. As to the kind of experiment: Cytotoxicity against human M14 cells assessed as cell growth at 10^-5 M after 48 hrs by SRB assay. Format: functional. The conditions noted are these: M14, 48 h, read-out: Activity.
Series [9] deals with MDA-MB-435. As to the kind of experiment: Cytotoxicity against human MDA-MB-435 cells assessed as cell growth at 10^-5 M after 48 hrs by SRB assay. Format: functional. The conditions noted are these: MDA-MB-435, 48 h, read-out: Activity.
Series [10] in a line: Cytotoxicity against human UACC257 cells assessed as cell growth at 10^-8 M after 48 hrs by SRB assay. Format: functional. Conditions: UACC-257, 48 h, read-out: Activity.
A further series deals with T47D. Briefly: Cytotoxicity against human T47D cells assessed as cell growth at 10^-5 M after 48 hrs by SRB assay. Format: functional. Conditions: read-out: Activity.
The nature of series [11]: Cytotoxicity against human HL-60(TB) cells assessed as cell growth at 10^-4 M after 48 hrs by SRB assay. Format: functional. The conditions noted are these: HL-60, 48 h, read-out: Activity.
In another series the test system is NCI-H23. As to the kind of experiment: Cytotoxicity against human NCI-H23 cells assessed as cell growth at 10^-4 M after 48 hrs by SRB assay. Format: functional. Conditions: NCI-H23, 48 h, read-out: Activity.
Series [12] can be described thus: Cytotoxicity against human UACC62 cells assessed as cell growth at 10^-4 M after 48 hrs by SRB assay. Format: functional. Conditions: UACC-62, 48 h, read-out: Activity.
Series [13] is described as follows: Cytotoxicity against human MOLT4 cells assessed as cell growth at 50 nM after 48 hrs by SRB assay. The conditions noted are these: MOLT-4, 48 h, read-out: Activity. Format: functional.
The test system of series [14] is NCI-H322M. Briefly: Cytotoxicity against human NCI-H322M cells assessed as cell growth at 50 nM after 48 hrs by SRB assay. Conditions: read-out: Activity. Format: functional.
For series [15], the system named is MDA-MB-435. Briefly: Cytotoxicity against human MDA-MB-435 cells assessed as cell growth at 50 nM after 48 hrs by SRB assay. Format: functional. The conditions noted are these: MDA-MB-435, 48 h, read-out: Activity.
Series [16] is described as follows: Cytotoxicity against human Caki1 cells assessed as cell growth at 50 nM after 48 hrs by SRB assay. Format: functional. The conditions noted are these: CAKI-1, 48 h, read-out: Activity.
Series [17] in a line: Cytotoxicity against human UO31 cells assessed as cell growth at 50 nM after 48 hrs by SRB assay. Format: functional. Conditions: UO-31, 48 h, read-out: Activity.
A further series concerns CCRF-CEM. As to the kind of experiment: Cytotoxicity against human CCRF-CEM cells assessed as cell growth at 0.5 uM after 48 hrs by SRB assay. Format: functional. The conditions noted are these: read-out: Activity.
Series [18] is described as follows: Cytotoxicity against human MOLT4 cells assessed as cell growth at 0.5 uM after 48 hrs by SRB assay. Format: functional. Conditions: MOLT-4, 48 h, read-out: Activity.
The next series relates to SR. As to the kind of experiment: Cytotoxicity against human SR cells assessed as cell growth at 0.5 uM after 48 hrs by SRB assay. Format: functional. Conditions: read-out: Activity.
A short description of series [19]: Cytotoxicity against human SF539 cells assessed as cell growth at 50 uM after 48 hrs by SRB assay. Format: functional. Conditions: SF-539, 48 h, read-out: Activity.
Series [20] is described as follows: Cytotoxicity against human TK10 cells assessed as cell growth at 50 uM after 48 hrs by SRB assay. Format: functional. Conditions: TK-10, 48 h, read-out: Activity.
Series [21] in a line: Metabolic stability in human liver microsomes assessed as remaining parent compound level at 10 uM after 3 hrs in presence of NAPDH by LC/MS analysis. Conditions: read-out: Drug metabolism. Format: ADME. For orientation: Liver microsomes are vesicles of endoplasmic reticulum, rich in cytochrome P450 enzymes.
Series [22] can be described thus: Cytotoxicity against human UACC257 cells assessed as cell growth at 0.5 uM after 48 hrs by SRB assay. Format: functional. Conditions: UACC-257, 48 h, read-out: Activity.
Series [23] in a line: Cytotoxicity against human PC3 cells assessed as cell growth at 0.5 uM after 48 hrs by SRB assay. Format: functional. Conditions: PC-3, 48 h, read-out: Activity.
The next series has as its system MCF7. As to the kind of experiment: Cytotoxicity against human MCF7 cells assessed as cell growth at 0.5 uM after 48 hrs by SRB assay. Format: functional. Conditions: MCF7, 48 h, read-out: Activity.
The next series has as its system K562. Briefly: Cytotoxicity against human K562 cells assessed as cell growth at 5 uM after 48 hrs by SRB assay. Format: functional. Conditions: K562, 48 h, read-out: Activity.
Series [24] in a line: Cytotoxicity against human HCC2998 cells assessed as cell growth at 5 uM after 48 hrs by SRB assay. Format: functional. Conditions: HCC 2998, 48 h, read-out: Activity.
A short description of series [25]: Cytotoxicity against human IGROV1 cells assessed as cell growth at 5 uM after 48 hrs by SRB assay. Conditions: IGROV-1, 48 h, read-out: Activity. Format: functional.
The nature of series [26]: Cytotoxicity against human Hs 578T cells assessed as cell growth at 5 uM after 48 hrs by SRB assay. Format: functional. The conditions noted are these: read-out: Activity.

For the compound `C/C(=C(/c1ccc(O)cc1)c1ccc(OCCN2CCCC2)cc1)c1ccccc1`, the growth at 0.1 µM was determined as 95% in series [1]; 91% in the series on Malme-3M; 102% in the series on SK-MEL-5; 90% in series [2]; 116% in the series on MDA-MB-231. For the same compound, the growth at 1 µM came out at 92% in series [3], 94% in [4] and 85% in [5]. Further, the growth at 10 µM in [6] was 3%; with NCI-H322M [7], 34%; in [8] it was -10%; in the series on M14, -58%; with MDA-MB-435 [9] it was -48%; in the series on T47D it was -5%. Further, in [10], the growth at 0.01 µM is 96%. In addition, the growth at 100 µM in series [11] was -69%; in the series with NCI-H23 it was -83%; in series [12], -79%.

With `CCCCCCCCCC(=O)Oc1ccc(/C(=C(/C)c2ccccc2)c2ccc(OCCN3CCCC3)cc2)cc1`, the growth at 0.05 µM in series [13] turned out to be 91%; in the series with NCI-H322M [14] it was 93%; with MDA-MB-435 [15], 92%; in [16] it was 82%; in [17] it was 89%. Moreover, the growth at 0.5 µM turned out to be 76% in the series on CCRF-CEM; 63% in [18]; 60% in the series with SR; 76% in series [22]; 86% in series [23]; 29% with MCF7. Moreover, the growth at 50 µM in [19] is -82%; in [20], -87%. Also, the remaining at 3 h, 10 µM in series [21] came to 63%. Besides, the growth at 5 µM with K562 turned out to be 74%; in series [24], 90%; in series [25], 84%; in series [26], 77%.

The values above are taken from ChEMBL document CHEMBL3774317, “Design and synthesis of novel tamoxifen analogues that avoid CYP2D6 metabolism” (Eur J Med Chem, 2016).
